{"source": "paper PMC1828167", "about": "“HIV-1 integrase inhibitors are substrates for the multidrug transporter MDR1-P-glycoprotein” (Retrovirology, 2007)", "key": {"[1]": {"test": "Cytotoxicity in HIV infected H9 cell line (trypan blue exclusion)", "type": "cell-based, human", "conditions": "human, HIV-1 (HTLVIIIB) infected H9 T lymphoid cells, 50% Cytotoxic Concentration", "experimental": "(§1) Anti-HIV activity was measured in the human T lymphoid H9 cells. To this purpose, cells were cultured in RPMI 1640, supplemented with 2 mM L-glutamine, penicillin, streptomycin and 10% fetal bovine serum (FBS), and infected with the HTLVIIIB laboratory strain of HIV-1 virus (100000 TCID50 – Tissue Culture Infective Dose- per 10^6 […]). After two hours of incubation, cells were washed with medium, and cultured at 37°C (5000 cells/well in 96-well microplates) for 3 days in presence of medium and test compounds at concentrations ranging from 50 μM to 0.1 μM. After 3 days p24 antigen concentration in the supernatants was measured by an ELISA assay (Innotest HIV antigen mAb, Innogenetics NV Belgium). Cell viability was determined by the trypan blue exclusion method.\n(§2) The 50% inhibitory drug concentration (IC50) and the 50% cytotoxic drug concentration (CC50) were calculated by the median effect equation using Calcusyn Version 2.0 program (Biosoft Cambridge)"}, "[2]": {"target": "T1, MDR1-P-glycoprotein (P-gp) (Homo sapiens, UniProt P08183)", "T1 sequence (P08183 whole entry)": "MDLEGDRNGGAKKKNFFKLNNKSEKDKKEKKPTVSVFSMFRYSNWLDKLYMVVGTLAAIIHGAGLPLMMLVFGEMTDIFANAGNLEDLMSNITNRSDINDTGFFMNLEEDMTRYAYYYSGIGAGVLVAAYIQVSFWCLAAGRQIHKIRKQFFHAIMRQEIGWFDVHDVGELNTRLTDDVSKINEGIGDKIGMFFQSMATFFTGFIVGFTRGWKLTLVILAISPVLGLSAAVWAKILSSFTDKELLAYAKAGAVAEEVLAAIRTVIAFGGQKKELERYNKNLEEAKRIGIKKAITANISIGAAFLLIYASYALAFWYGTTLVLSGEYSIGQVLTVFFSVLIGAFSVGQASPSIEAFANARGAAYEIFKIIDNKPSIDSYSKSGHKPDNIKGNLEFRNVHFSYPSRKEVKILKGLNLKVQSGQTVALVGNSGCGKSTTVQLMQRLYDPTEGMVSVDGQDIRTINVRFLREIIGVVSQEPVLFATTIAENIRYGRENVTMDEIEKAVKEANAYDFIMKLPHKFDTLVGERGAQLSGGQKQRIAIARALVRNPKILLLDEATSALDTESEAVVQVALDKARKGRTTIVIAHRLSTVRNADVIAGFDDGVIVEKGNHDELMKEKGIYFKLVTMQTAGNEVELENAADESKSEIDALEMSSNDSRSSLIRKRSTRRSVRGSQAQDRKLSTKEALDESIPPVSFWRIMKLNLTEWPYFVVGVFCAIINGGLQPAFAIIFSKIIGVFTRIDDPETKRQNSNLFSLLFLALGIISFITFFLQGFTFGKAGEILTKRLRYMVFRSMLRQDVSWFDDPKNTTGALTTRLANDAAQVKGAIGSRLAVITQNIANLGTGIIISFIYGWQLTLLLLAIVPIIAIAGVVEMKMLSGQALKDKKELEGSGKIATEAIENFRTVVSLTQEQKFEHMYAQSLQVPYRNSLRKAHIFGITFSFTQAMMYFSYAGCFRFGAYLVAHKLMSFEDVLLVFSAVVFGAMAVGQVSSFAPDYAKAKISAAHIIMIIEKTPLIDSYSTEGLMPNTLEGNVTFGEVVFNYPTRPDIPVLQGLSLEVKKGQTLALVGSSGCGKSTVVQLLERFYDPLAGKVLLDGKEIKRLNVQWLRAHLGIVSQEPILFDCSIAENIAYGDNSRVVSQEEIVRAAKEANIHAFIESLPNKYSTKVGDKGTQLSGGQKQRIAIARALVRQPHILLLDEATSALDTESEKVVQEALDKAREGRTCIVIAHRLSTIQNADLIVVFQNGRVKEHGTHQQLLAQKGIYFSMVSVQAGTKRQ", "test": "MDR efflux assay: doxorubicin efflux inhibition in CEM-VBL100 cells (flow cytometry)", "type": "cell-based", "design": "CEM-VBL10 and CEM-VBL100 cells were isolated by stepwise selection of the parental drug sensitive CCRF-CEM (CEM) in the presence of increasing concentrations of VBL; endogenous in cells; host or cells: CEM-VBL10 (UIC2 shift assay) and CEM-VBL100 (doxorubicin efflux assay), MDR variants of CCRF-CEM; key to Doxorubicin efflux inhibition (B): the + or ++ symbols indicate arbitrary units in measuring and differentiating the level of UIC2 epitope modulation and doxorubicin retention; the + or ++ symbols indicate arbitrary units in measuring and differentiating the level of UIC2 epitope modulation and doxorubicin retention", "conditions": "for Doxorubicin efflux inhibition (B): CEM-VBL100 cells", "experimental": "[…] The cells were incubated with doxorubicin (10 μg/ml) only or drug diluent in parallel cultures. At the end of incubation, the cells were washed in serum-free medium and resuspended in BM in the presence of the IINs or Verapamil (drug diluent was added in control samples) for a further 1 h at 37°C. Finally, cells were washed twice with ice-cold PBS/FACS, and analyzed in a flow cytometer (FACScan, Becton Dickinson, San Josè, CA)."}, "[3]": {"system": "P-gp expression in CEMrev cells", "test": "Induction of P-gp expression in CEMrev cells (flow cytometry)", "type": "cell-based, human", "conditions": "for % of P-gp expressing cells: CEMrev", "excerpt": "Similarly to some of the isozymes involved in drug metabolism, the expression of P-gp is inducible. It is therefore important to assess whether P-gp induction occurs upon exposure to IINs, with potential implications for drug metabolism. To this aim, we investigated whether the treatment with the IINs RDS 1974, RDS 1983, RDS 1984 and RDS 1996, all having different biological and physicochemical properties (Table 1), modulate P-gp expression in the human CD4+ CEM cell system. The parental drug sensitive CEM cell line and the revertant of its derivative CEM-VBL10 MDR cell variant (CEMrev), expressing very low or undetectable amount of P-gp, were cultured in the presence of the indicated IINs ([…]; 25 μg/ml for RDS 1983 and RDS 1984) for 28 days (RDS 1983, RDS 1984 and RDS 1996) or 104 days (RDS 1974). As a control for P-gp modulation, CEMrev cells were exposed to VBL, shown to increase P-gp expression.\nThe multidrug resistant (MDR) variants CEM-VBL10 and CEM-VBL100 cells were isolated by stepwise selection of the parental drug sensitive CCRF-CEM (CEM) in the presence of increasing concentrations of VBL [31, 32]. Cells were grown under standard conditions for mammalian cells cultured in suspension. The basic medium (BM) for cell culturing consisted of RPMI-1640 supplemented with 10% foetal calf serum (FCS), L-glutamine (2 mM) penicillin (100 U/mL) and streptomycin (100 U/mL). All these components were purchased from Hyclone (Logan, Utah). Identical BM, culture conditions and trypsin (Hyclone) were used for the adherent MDR variant KB.V1 of the human oral epidermoid carcinoma KB cells. To test the ability of selected IINs (RDS 1974, […], RDS 1984 and RDS 1996) to induce de novo expression of P-glycoprotein, the drug-sensitive CEMrev cell line was used; this cell line derives from the CEM-VBL10 MDR cell line, cultured for more than 2 years in VBL-free medium and expresses very low (1–3%) or undetectable amounts of P-gp.\n(§3) The anti CD4-FITC mAb was purchased from Vinci Biochem, Firenze, Italy. The mAb UIC2 [30] was kindly provided by Dr. E. Mechetner (Chemicon Inc, Temecula, CA). For determination of P-gp expression, the mAb MM4.17, recognizing an extracellular P-gp epitope on intact/living human MDR cells, was also used. Both UIC2 and MM4.17 mAbs were used in a highly purified form."}, "[4]": {"target": "HIV-1 Integrase (IN)", "design": "method as in PMID 16539381", "conditions": "HIV-1 integration strand transfer step; 50% Inhibitory Concentration; cited from earlier work"}, "[5]": {"system": "HTLVIIIB laboratory strain of HIV-1 virus", "test": "Anti-HIV activity in HIV-infected H9 cells (p24 antigen ELISA)", "type": "cell-based", "conditions": "HIV infected H9 cell line, 3 days, 50% Effective Concentration", "experimental": "as §1, §2"}, "[6]": {"target": "T1, MDR1-P-glycoprotein (P-gp)", "test": "UIC2 shift assay (P-gp functional conformation) in CEM-VBL10 cells", "type": "cell-based", "design": "CEM-VBL10 and CEM-VBL100 cells were isolated by stepwise selection of the parental drug sensitive CCRF-CEM (CEM) in the presence of increasing concentrations of VBL; endogenous in cells; host or cells: CEM-VBL10 (UIC2 shift assay) and CEM-VBL100 (doxorubicin efflux assay), MDR variants of CCRF-CEM; key to UIC2 epitope up-modulation (A): the + or ++ symbols indicate arbitrary units in measuring and differentiating the level of UIC2 epitope modulation and doxorubicin retention; the + or ++ symbols indicate arbitrary units in measuring and differentiating the level of UIC2 epitope modulation and doxorubicin retention", "conditions": "for mAb UIC2 reactivity: 37°C (Fig 1)", "experimental": "as §3\nThe UIC2 shift assay was performed under physiological conditions as previously described. CEM-VBL10 cells (1 × 10^6) were resuspended in 1 ml of PBS containing 2% FCS and allowed to equilibrate at 37°C in a water bath for 10 min. The various IINs were added to samples (final concentrations 100 or 50 μg/ml) and incubated for additional 15 min at 37°C with purified UIC2 mAb (final concentration 12.5 μg/ml). VBL (10 μg/ml), which is a well known UIC2 shifting agent, and the drug diluents were used as positive and negative controls, respectively. Cells were then washed twice in ice-cold PBS containing 2% FCS with 0.01 % sodium azide (Shift Stop Buffer, SSB), stained on ice in SSB for additional 15 min with 5 μg/ml of fluorescein -conjugated goat-antimouse antibody (FITC-GAM, Cappel, West Chester, Pa, USA), washed twice with ice cold PBS/FACS and maintained in ice until flow cytometry analysis. The UIC2 shift is the difference between UIC2 binding in the presence versus the absence of the IINs under physiological conditions (37°C)."}, "[7]": {"target": "T1, MDR1-P-glycoprotein (P-gp)", "test": "Doxorubicin efflux/retention in KB-V1 MDR cells (confocal microscopy)", "conditions": "25 μg/ml, 5 μg/ml doxorubicin, 1 and 3 hrs of extrusion"}, "[8]": {"system": "P-gp expression in CEM cells", "test": "Induction of P-gp expression in parental drug sensitive CEM cells (flow cytometry)", "type": "cell-based, human", "conditions": "25 μg/ml, 28 days of culture", "excerpt": "Similarly to some of the isozymes involved in drug metabolism, the expression of P-gp is inducible. It is therefore important to assess whether P-gp induction occurs upon exposure to IINs, with potential implications for drug metabolism. To this aim, we investigated whether the treatment with the IINs RDS 1974, RDS 1983, RDS 1984 and RDS 1996, all having different biological and physicochemical properties (Table 1), modulate P-gp expression in the human CD4+ CEM cell system. The parental drug sensitive CEM cell line and the revertant of its derivative CEM-VBL10 MDR cell variant (CEMrev), expressing very low or undetectable amount of P-gp, were cultured in the presence of the indicated IINs (10 μg/ml for RDS 1974 and RDS 1996; 25 μg/ml for RDS 1983 and RDS 1984) for 28 days (RDS 1983, RDS 1984 and RDS 1996) or 104 days (RDS 1974). As a control for P-gp modulation, CEMrev cells were exposed to VBL, shown to increase P-gp expression.\nThe multidrug resistant (MDR) variants CEM-VBL10 and CEM-VBL100 cells were isolated by stepwise selection of the parental drug sensitive CCRF-CEM (CEM) in the presence of increasing concentrations of VBL [31, 32]. Cells were grown under standard conditions for mammalian cells cultured in suspension. […]"}, "[9]": {"system": "H9 cells", "test": "Cytotoxicity in HIV infected H9 cell line (trypan blue exclusion)", "type": "cell-based, human", "conditions": "50% Cytotoxic Concentration", "experimental": "as §1, §2"}}, "data": [{"molecule": "O=C(O)/C(O)=C/C(=O)c1cn(Cc2c(F)cccc2F)c2ccccc2c1=O", "note": "[RDS 1984]", "values": [{"measurement": "CC50 at 3 days", "setting": "[1]", "result": "> 50", "unit": "µM"}, {"measurement": "intracellular accumulation of doxorubicin", "setting": "[2]; CEM-VBL100 MDR cells, 1 μg/ml to 100 μg/ml (Fig 2)", "result": "intracellular accumulation of doxorubicin with a dose dependent effect"}, {"measurement": "% of P-gp expressing cells", "setting": "[3]; 25 μg/ml, 28 days of culture", "result": "15–18%"}, {"measurement": "IC50", "setting": "[4]", "result": 0.019, "unit": "µM"}, {"measurement": "EC50", "setting": "[5]; Human immunodeficiency virus 1, 72 h", "result": 9.64, "unit": "µM"}, {"measurement": "mAb UIC2 reactivity", "setting": "[6]; 50 μg/ml", "result": "increased"}, {"measurement": "doxorubicin retention", "setting": "[7]", "result": "doxorubicin was retained"}, {"measurement": "% of P-gp expressing cells", "setting": "[8]", "result": 0, "unit": "%"}]}, {"molecule": "O=C(O)C(=O)/C=C(\\O)c1ccc2c(c1)c(=O)c(/C(O)=C/C(=O)C(=O)O)cn2Cc1ccc(F)cc1", "note": "[RDS 1997]", "values": [{"measurement": "CC50", "setting": "[9]", "result": "> 50", "unit": "µM"}, {"measurement": "Doxorubicin efflux inhibition (B)", "setting": "[2]; 25 μg/ml", "result": "+"}, {"measurement": "Doxorubicin efflux inhibition (B)", "setting": "[2]; 50 μg/ml", "result": "++"}, {"measurement": "EC50", "setting": "[5]", "result": 2.44, "unit": "µM"}, {"measurement": "UIC2 epitope up-modulation (A)", "setting": "[6]; 50 μg/ml", "result": "+"}, {"measurement": "UIC2 epitope up-modulation (A)", "setting": "[6]; 100 μg/ml", "result": "++"}]}, {"molecule": "CC[C@]1(O)C[C@@H]2CN(CCc3c([nH]c4ccccc34)[C@@](C(=O)OC)(c3cc4c(cc3OC)N(C)[C@H]3[C@@](O)(C(=O)OC)[C@H](OC(C)=O)[C@]5(CC)C=CCN6CC[C@]43[C@@H]65)C2)C1", "note": "[Vinblastine]", "values": [{"measurement": "P-gp expression (in words)", "setting": "[3]; CEMrev cell line, compared with the drug diluent control", "result": "strong induction of P-gp expression"}, {"measurement": "% of P-gp expressing cells", "setting": "[3]; 10 μg/ml, 28 days of culture", "result": "30–35%"}, {"measurement": "% of P-gp expressing cells", "setting": "[3]; 10 μg/ml, 104 days of culture", "result": "60–70%"}, {"measurement": "mAb UIC2 reactivity", "setting": "[6]; 10 μg/ml", "result": "increased"}]}]}
